Laboratory results reported in patent US9856290B2, “Glycopeptide compositions and uses thereof” (SUSSEX RESEARCH LABORATORIES INC., priority 2013, dated 2018).
Marks after values point to notes of the source that are not given here. Primed or numbered codes have the meaning given here. Where no end group is shown, it is not given here. The star is where a group is joined. Ac4‑β‑Gal = tetraacetyl-β-galactoside (peracetylated β-galactose), CC(=O)OC[C@H]1O[C@@H](*)[C@H](OC(C)=O)[C@@H](OC(C)=O)[C@H]1OC(C)=O; Ac3‑α‑GalNAc″ = peracetylated alpha-N-acetylgalactosamine, CC(=O)N[C@@H]1[C@@H](OC(C)=O)[C@@H](OC(C)=O)[C@@H](COC(C)=O)O[C@@H]1*; Ac4‑β‑Glc = per-acetylated β-glucose (tetraacetyl), CC(=O)OC[C@H]1O[C@@H](*)[C@H](OC(C)=O)[C@@H](OC(C)=O)[C@@H]1OC(C)=O; β‑maltose = OC[C@H]1O[C@H](O[C@H]2[C@H](O)[C@@H](O)[C@H](*)O[C@@H]2CO)[C@H](O)[C@@H](O)[C@@H]1O; αGalNAc = CC(=O)N[C@@H]1[C@@H](O)[C@@H](O)[C@@H](CO)O[C@@H]1*; αMan = OC[C@H]1O[C@H](*)[C@@H](O)[C@@H](O)[C@@H]1O; βGlc = OC[C@H]1O[C@@H](*)[C@H](O)[C@@H](O)[C@@H]1O; Palmitoyl = CCCCCCCCCCCCCCCC(=O)*

How the values were obtained:
[1] = tested on: Human Dermal Fibroblasts (KMST-6); assay: ECM ELISA assay: fibronectin secretion by human dermal fibroblasts; assay type: cell-based; settings: 5 μM; for Fibronectin secretion at 48 hours: KMST-6, 48 hours; for Fibronectin secretion at 48 hours / Fibronectin Secretion at 72 hours: % compared to control set at 100%, normalized to total protein; for Fibronectin Secretion at 72 hours / FIBRONECTIN (ECM Protein Summary Table): KMST-6, 72 hours; for FIBRONECTIN (ECM Protein Summary Table): control 100%
Experimental: (§1) KMST-6 cells (Japan Health Sciences Foundation, JCRB0433) were seeded at 7,000 cells/ml in 12-well tissue culture treated plates (Falcon, 353043) in complete media. The complete media consisted of the following: MEM/EBSS (Hyclone, SH30024.01), 10% Heat-Inactivated FBS (Gibco, 10082-147), 1% L-Glutamine (Hyclone, SH30031.01), 1% Nucleosides (800 mg/L Adenosine, 850 mg/L Guanidine, 730 mg/L Cytidine, 730 mg/L Uridine and 240 mg/L Thymidine), 1% Penicillin/Streptomycin (HyClone, SV30010), 1% Sodium Pyruvate (HyClone, SH30239.01), 1% Non-Essential Amino Acids (Hyclone, SH30238.01) and 0.04% Gentamicin (Gibco, 15710-064). Cells were grown for 2 days prior to treatments. The media was aspirated and cells were washed with 1×PBS (Fisher, SH30256.01) and treated with 5 μM (1 mL/well) glycopeptides, reference (Pal-KTTKS, CPC Scientific, 822197), and control (DMSO, Fisher, BP231-100) in serum-free media supplemented with 50 μg/mL Sodium Ascorbate (Sigma, A4034) and 80 μg/mL β-Aminopropionate Fumarate (Sigma, A3134). The treated cells were incubated at 37° C. and 5% CO2 for 48 and 72 hours. At each timepoint, media from each treatment was collected and centrifuged at 1500 RPM for 15 minutes at 4° C. The supernatant was collected and stored at −80° C. for extracellular matrix protein quantification. The following kits were used for quantification of ECM proteins: Fibronectin (Takara, MK115) and Elastin (Uscn Life Science Inc., E91337Hu). The cells were harvest and lysed with 250 μL Lysis Buffer (20 mM Tris-HCl (Sigma, T1503), 137 mM NaCl (Sigma, S9888), 2 mM EDTA (Fisher, BP118), 1% IGEPAL (Sigma, 18896), 10% Glycerol (Sigma, G5516), 100 μM PMSF (Fisher, 36978) and 10 μg/mL Leupeptin (Sigma-Aldrich, L2884). They were placed on a container of ice on a plate shaker (Lab-Line Instruments, 3595) for 30 minutes. The lysate was centrifuged at 10,000 g for 5 minutes at 4° C. The supernatant was collected and used for protein quantification (BioRad, 500-0112).
(§2) To determine effects on extracellular matrix protein secretion, 5 μM of individual glycopeptides were incubated with Human Dermal Fibroblasts (KMST-6). The control sample cells were treated with DMSO (Fisher, BP231-100). As described previously, supernatant was collected from treated cells (at two time-points, 48 and 72 hours of treatment) and stored at −80° C. for subsequent extracellular matrix protein quantification using ELISA kits (Fibronectin (Takara, MK115), Elastin (Uscn Life Science Inc., E91337Hu). For the determination of total cellular protein, treated cells were harvested and lysed. The lysate was centrifuged, the supernatant was collected and then used for protein quantification (BioRad, 500-0112). ELISA plates were read on the plate reader (Molecular Devices) at absorbance of 450 nm and SoftMax Pro software was used to compute the μg/ml values of protein of interest derived from the generated 4-parameter fit standard curve. Each μg/ml of protein secreted was normalized to total protein per well. The data was analysed by averaging out normalized values from at least three independent experiments and presenting them as a % compared to control treatment set at 100% (Table 2-5). Statistical significance was performed using One-way ANOVA (p<0.05) where “*” represents statistical significance when compared to control and “#” represents statistical significance when compared to reference. […]

[2] = tested on: Human Dermal Fibroblasts (KMST-6); assay: ECM ELISA assay: elastin secretion by human dermal fibroblasts; assay type: cell-based; settings: 5 μM; for Elastin Secretion at 48 hours: KMST-6, 48 hours; for Elastin Secretion at 48 hours / Elastin Secretion at 72 hours: % compared to control set at 100%, normalized to total protein; for Elastin Secretion at 72 hours / ELASTIN (ECM Protein Summary Table): KMST-6, 72 hours; for ELASTIN (ECM Protein Summary Table): control 100%; for increased elastin secretion compared to control: versus DMSO control
Experimental: as §1, §2

Substance | Fibronectin secretion at 48 hours [1] | Fibronectin Secretion at 72 hours [1] | Elastin Secretion at 48 hours [2] | Elastin Secretion at 72 hours [2] | biological activity in fibronectin secretion compared to control ([1]; 72 hours) | FIBRONECTIN (ECM Protein Summary Table) [1] | biological activity in elastin secretion compared to control ([2]; 72 hours) | ELASTIN (ECM Protein Summary Table) [2] | increased fibronectin secretion compared to control ([1]; 72 hours, versus DMSO control) | increased elastin secretion compared to control ([2]; 72 hours) | increased secretion of elastin compared to the reference peptide ([2]; 72 hours, versus Pal-KTTKS reference)
Pal-KT(α-Man)TKS-OH (Palmitoyl-KT(αMan)TKS-OH; SMILES CCCCCCCCCCCCCCCC(=O)N[C@@H](CCCCN)C(=O)N[C@H](C(=O)N[C@H](C(=O)N[C@@H](CCCCN)C(=O)N[C@@H](CO)C(=O)O)[C@@H](C)O)[C@@H](C)O[C@H]1O[C@H](CO)[C@@H](O)[C@H](O)[C@@H]1O; listed as Homo sapiens) [GP003-2] | 165.0* % | 110.3% | 121.0% | 160.4% |  |  |  |  |  |  | 
Dal-KT(β-Mal)TKS-OH (KT(β‑maltose)TKS-OH; not fully specified (N-terminus); printed as Dal-KT(β-Mal)TKS-OH; listed as Homo sapiens) [GP003-10] | 144.5% | 94.70% | 149.5% | 127.6% |  |  |  |  |  |  | 
Pal-KT(Ac4-β-Glc)TKS-OH (Palmitoyl-KT(Ac4‑β‑Glc)TKS-OH; SMILES CCCCCCCCCCCCCCCC(=O)N[C@@H](CCCCN)C(=O)N[C@H](C(=O)N[C@H](C(=O)N[C@@H](CCCCN)C(=O)N[C@@H](CO)C(=O)O)[C@@H](C)O)[C@@H](C)O[C@@H]1O[C@H](COC(C)=O)[C@@H](OC(C)=O)[C@H](OC(C)=O)[C@H]1OC(C)=O; listed as Homo sapiens) [GP001-1] | 159.3* % | 121.5% | 205.3% | 188.0% | greater biological activity | 122% | greater biological activity | 188% |  |  | 
Pal-KS(β-Glc)TKS-OH (Palmitoyl-KS(βGlc)TKS-OH; SMILES CCCCCCCCCCCCCCCC(=O)N[C@@H](CCCCN)C(=O)N[C@@H](CO[C@@H]1O[C@H](CO)[C@@H](O)[C@H](O)[C@H]1O)C(=O)N[C@H](C(=O)N[C@@H](CCCCN)C(=O)N[C@@H](CO)C(=O)O)[C@@H](C)O; listed as Homo sapiens) [GP003-4] | 165.8* % | 132.5% | 136.8% | 120.8% |  |  |  |  |  |  | 
Pal-KTT(β-Glc)KS-OH (Palmitoyl-KTT(βGlc)KS-OH; SMILES CCCCCCCCCCCCCCCC(=O)N[C@@H](CCCCN)C(=O)N[C@H](C(=O)N[C@H](C(=O)N[C@@H](CCCCN)C(=O)N[C@@H](CO)C(=O)O)[C@@H](C)O[C@@H]1O[C@H](CO)[C@@H](O)[C@H](O)[C@H]1O)[C@@H](C)O; listed as Homo sapiens) [GP001-8] | 106.4% | 106.2% | 94.25% | 91.25% |  |  |  |  |  |  | 
Pal-KTTKS(Ac4-β-Glc)-OH (Palmitoyl-KTTKS(Ac4‑β‑Glc)-OH; SMILES CCCCCCCCCCCCCCCC(=O)N[C@@H](CCCCN)C(=O)N[C@H](C(=O)N[C@H](C(=O)N[C@@H](CCCCN)C(=O)N[C@@H](CO[C@@H]1O[C@H](COC(C)=O)[C@@H](OC(C)=O)[C@H](OC(C)=O)[C@H]1OC(C)=O)C(=O)O)[C@@H](C)O)[C@@H](C)O; listed as Homo sapiens) [GP002-3] | 135.5% | 134.5* % | 460.4* % | 321.6* % | greater biological activity | 135* % | greater biological activity | 322*^# % | 35% | 222% | 189%
Pal-KT(α-GalNAc)TKS-OH (Palmitoyl-KT(αGalNAc)TKS-OH; SMILES CCCCCCCCCCCCCCCC(=O)N[C@@H](CCCCN)C(=O)N[C@H](C(=O)N[C@H](C(=O)N[C@@H](CCCCN)C(=O)N[C@@H](CO)C(=O)O)[C@@H](C)O)[C@@H](C)O[C@H]1O[C@H](CO)[C@H](O)[C@H](O)[C@H]1NC(C)=O; listed as Homo sapiens) [GP001-4] | 134.2% | 112.5% | 104.5% | 100.0% |  |  |  |  |  |  | 
Pal-N(Ac4-β-Glc)KTTKS-OH (Palmitoyl-N(Ac4‑β‑Glc)KTTKS-OH; listed as Homo sapiens) [GP003-7] | 139.8% | 118.5% | 105.0% | 148.2% |  |  |  |  |  |  | 
Pal-N(β-Glc)KTTKS-OH (Palmitoyl-N(βGlc)KTTKS-OH; listed as Homo sapiens) [GP003-8] | 157.2% | 126.0% | 111.3% | 146.5% |  |  |  |  |  |  | 
Pal-KTTKS(Ac4-β-Gal)-OH (Palmitoyl-KTTKS(Ac4‑β‑Gal)-OH; SMILES CCCCCCCCCCCCCCCC(=O)N[C@@H](CCCCN)C(=O)N[C@H](C(=O)N[C@H](C(=O)N[C@@H](CCCCN)C(=O)N[C@@H](CO[C@@H]1O[C@H](COC(C)=O)[C@H](OC(C)=O)[C@H](OC(C)=O)[C@H]1OC(C)=O)C(=O)O)[C@@H](C)O)[C@@H](C)O; listed as Homo sapiens) [GP002-7] | 113.7% | 116.1% | 198.3% | 207.1* % | greater biological activity | 116% | greater biological activity | 207* % |  | 107% | 
Pal-KT(Ac3-α-GalNAc)-T(Ac3-α-GalNAc)KS-OH (Palmitoyl-KT(Ac3‑α‑GalNAc″)T(Ac3‑α‑GalNAc″)KS-OH; SMILES CCCCCCCCCCCCCCCC(=O)N[C@@H](CCCCN)C(=O)N[C@H](C(=O)N[C@H](C(=O)N[C@@H](CCCCN)C(=O)N[C@@H](CO)C(=O)O)[C@@H](C)O[C@H]1O[C@H](COC(C)=O)[C@H](OC(C)=O)[C@H](OC(C)=O)[C@H]1NC(C)=O)[C@@H](C)O[C@H]1O[C@H](COC(C)=O)[C@H](OC(C)=O)[C@H](OC(C)=O)[C@H]1NC(C)=O; listed as Homo sapiens) [GP001-13] | 114.0% | 94.50% | 123.8% | 131.3% |  |  |  |  |  |  | 
